In ChEMBL document CHEMBL4028893, “Discovery and Optimization of Potent, Cell-Active Pyrazole-Based Inhibitors of Lactate Dehydrogenase (LDH)” (J Med Chem, 2017):
pIC50: −log10 of the molar value. Values belong to the compound of their own block, whether it stands above or below them. Calls of active or inactive are those of the source. The calls are words filed in the database; no cut-off is given here.

Key:
[1] = target: T1, L-lactate dehydrogenase (Homo sapiens, UniProt V9HWB9); experiment: Inhibition of LDH in human A673 cells assessed as reduction in lactate production preincubated for 2 hrs measured after 30 mins by high throughput fluorescence assay; type: cell-based
[2] = target: T2, L-lactate dehydrogenase A chain (Homo sapiens, UniProt P00338)
Description: Inhibition of human liver LDHA using sodium pyruvate as substrate after 5 mins in presence of NAPDH and EDTA by diaphorase/resazurin based fluorescence assay

[3] = target: T1, L-lactate dehydrogenase; experiment: Inhibition of LDH in human MIAPaCa2 cells assessed as reduction in lactate production preincubated for 2 hrs measured after 30 mins by high throughput fluorescence assay; type: cell-based
[4] = target: T2, L-lactate dehydrogenase A chain; remark: listed apart in the source
Description: Inhibition of human liver LDHA using sodium pyruvate as substrate after 5 mins in presence of NAPDH and in absence of EDTA by diaphorase/resazurin based fluorescence assay

SMILES: O=C(O)c1csc(-n2nc(-c3ccc(F)cc3F)cc2O)n1
- inhibition [1]: inactive
- pIC50 [2]: < 4.24
- inhibition [3]: inactive
- pIC50 [4]: 7.08

SMILES: O=C(O)c1csc(-n2nc(-c3cc(F)cc(F)c3)cc2O)n1
- inhibition [1]: inactive
- pIC50 [2]: < 4.24
- inhibition [3]: inactive
- pIC50 [4]: 6.96

SMILES: O=C(O)c1csc(-n2nc(-c3cccc(-c4ccccc4)c3)cc2O)n1
- inhibition [1]: inactive
- pIC50 [2]: < 4.24
- inhibition [3]: inactive
- pIC50 [4]: 6.58

SMILES: O=C(O)c1csc(-n2nc(-c3cccc(Cl)c3)cc2O)n1
- inhibition [1]: inactive
- pIC50 [2]: < 4.24
- inhibition [3]: inactive
- pIC50 [4]: 6.77

SMILES: CCOC(=O)c1csc(-n2nc(-c3cccc(-c4ccccc4)c3)c(Cc3ccc(S(N)(=O)=O)cc3)c2C(F)(F)F)n1
- pIC50 [2]: < 4.24

SMILES: Cc1c(Cc2ccc(S(N)(=O)=O)cc2)c(-c2ccccc2)nn1-c1nc(C(=O)O)cs1
- pIC50 [2]: 7.38

- inhibition [1]: inactive
- inhibition [3]: inactive
SMILES: O=C(O)c1csc(-n2nc(-c3ccc(F)cc3)cc2C(F)(F)F)n1

SMILES: CNS(=O)(=O)c1ccc(Cc2c(-c3cccc(-c4ccccc4)c3)nn(-c3nc(C(=O)O)cs3)c2O)cc1
- pIC50 [2]: < 4.24

SMILES: O=C(O)c1csc(-n2nc(-c3ccc(F)c(F)c3)c(Cc3ccccc3)c2O)n1
- pIC50 [2]: < 4.24

SMILES: O=C(O)c1csc(-n2nc(-c3ccc(F)cc3)cc2O)n1
- inhibition [1]: inactive
- pIC50 [2]: < 4.24
- inhibition [3]: inactive
- pIC50 [4]: 7.02

SMILES: O=C(O)c1csc(-n2nc(-c3cccc(C(F)(F)F)c3)cc2O)n1
- inhibition [1]: inactive
- pIC50 [2]: < 4.24
- inhibition [3]: inactive
- pIC50 [4]: 6.72

- inhibition [1]: inactive
- pIC50 [2]: < 4.24
- inhibition [3]: inactive
- pIC50 [4]: 6.82
SMILES: O=C(O)c1csc(-n2nc(-c3ccc(F)c(F)c3)cc2O)n1

SMILES: O=C(O)c1csc(-n2nc(-c3cccc4ccccc34)cc2O)n1
- inhibition [1]: inactive
- pIC50 [2]: < 4.24
- inhibition [3]: inactive
- pIC50 [4]: 6.67

SMILES: Cc1cc(-c2ccccc2)nn1-c1nc(C(=O)O)cs1
- inhibition [1]: inactive
- pIC50 [2]: < 4.24
- inhibition [3]: inactive
- pIC50 [4]: 4.81

SMILES: NS(=O)(=O)c1ccc(Cc2cn(-c3nc(C(O)C(F)(F)F)cs3)nc2-c2ccccc2)cc1 (stereo not given)
- pIC50 [2]: < 4.24

SMILES: O=C(O)c1csc(-n2nc(-c3ccccn3)cc2O)n1
- inhibition [1]: inactive
- pIC50 [2]: < 4.24
- inhibition [3]: inactive
- pIC50 [4]: 5.99

SMILES: NS(=O)(=O)c1ccc(NCc2cn(-c3nc(C(=O)O)cs3)nc2-c2ccccc2)cc1
- pIC50 [2]: < 4.24

SMILES: NC(=O)c1ccc(Cc2c(-c3cccc(-c4ccccc4)c3)nn(-c3nc(C(=O)O)cs3)c2O)cc1
- pIC50 [2]: < 4.24

SMILES: NS(=O)(=O)c1ccc(Oc2cn(-c3nc(C(=O)O)cs3)nc2-c2ccccc2)cc1
- pIC50 [2]: 6.91

SMILES: NS(=O)(=O)c1cccc(Cc2c(-c3ccc(F)c(F)c3)nn(-c3nc(C(=O)O)cs3)c2O)c1
- pIC50 [2]: < 4.24

SMILES: N#Cc1c(Cc2ccc(S(N)(=O)=O)cc2)c(-c2ccccc2)nn1-c1nc(C(=O)O)cs1
- pIC50 [2]: 6.94

SMILES: NS(=O)(=O)c1ccc(Oc2c(-c3ccccc3)nn(-c3nc(C(=O)O)cs3)c2C2CC2)cc1
- pIC50 [2]: 7.19

SMILES: O=C(O)c1ccc(Cc2c(-c3cccc(-c4ccccc4)c3)nn(-c3nc(C(=O)O)cs3)c2O)cc1
- pIC50 [2]: 4.47

SMILES: NS(=O)(=O)c1ccc(Cc2c(-c3ccccc3)nn(-c3nc(CO)cs3)c2C(F)(F)F)cc1
- pIC50 [2]: 4.59

SMILES: NC(=O)c1csc(-n2nc(-c3cccc(-c4ccccc4)c3)c(Cc3ccc(S(N)(=O)=O)cc3)c2O)n1
- pIC50 [2]: 4.56

SMILES: NS(=O)(=O)N1CCN(Cc2cn(-c3nc(C(=O)O)cs3)nc2-c2ccccc2)CC1
- pIC50 [2]: 4.76

SMILES: NS(=O)(=O)c1ccc(Cc2c(-c3ccccc3)nn(-c3nc(C(=O)O)cs3)c2-c2ccccc2)cc1
- pIC50 [2]: 6.86

SMILES: NS(=O)(=O)c1ccc(C(=O)Nc2cn(-c3nc(C(=O)O)cs3)nc2-c2ccccc2)cc1
- pIC50 [2]: < 4.24

SMILES: NS(=O)(=O)c1ccc(Cc2c(-c3cccc(-c4ccccc4)c3)nn(-c3nc(-c4nnn[nH]4)cs3)c2O)cc1
- pIC50 [2]: < 4.24
